Measured values: ChEMBL document CHEMBL5325413, “Optimization of BAX trigger site activator BTSA1 with improved antitumor potency and in vitro ADMET properties” (Eur J Med Chem, 2023)
Calls of active or inactive are those of the source. The calls are words filed in the database; no cut-off is given here.

Columns and labels:
HCT-116 = assay: Antiproliferative activity against human HCT-116 cells assessed as cell growth inhibition incubated for 72 hrs by MTT assay; format: functional
A549 [1] = assay: Antiproliferative activity against human A549 cells assessed as cell growth inhibition incubated for 72 hrs by MTT assay; format: functional
PC-3 = assay: Antiproliferative activity against human PC-3 cells assessed as cell growth inhibition incubated for 72 hrs by MTT assay; format: functional
[2] = human, 1 h, 100 µM
[3] = human, microsomes, 1 h, 100 µM
[4] = mouse, 1 h, 100 µM
A549 [5] = assay: Induction of apoptosis in human A549 cells assessed as late apoptotic cells at 10 uM incubated for 48 hrs by Annexin V-FITC/PI staining based flow cytometry analysis (reference value: 2.15%); format: functional
A549 [6] = assay: Induction of apoptosis in human A549 cells assessed as early apoptotic cells at 10 uM incubated for 48 hrs by Annexin V-FITC/PI staining based flow cytometry analysis (reference value: 0.708%); format: functional
A549 [7] = assay: Induction of apoptosis in human A549 cells assessed as dead cells at 10 uM incubated for 48 hrs by Annexin V-FITC/PI staining based flow cytometry analysis (reference value: 0.739%); format: functional
A549 [8] = assay: Induction of apoptosis in human A549 cells assessed as live cells at 10 uM incubated for 48 hrs by Annexin V-FITC/PI staining based flow cytometry analysis (reference value: 96.4%); format: functional
A549 [9] = assay: Induction of apoptosis in human A549 cells assessed as upregulation of BAX translocation at 20 uM incubated for 24 hrs by Western blot analysis; format: functional, cell-based
A549 [10] = assay: Induction of apoptosis in human A549 cells assessed as total apoptotic cells at 10 uM incubated for 48 hrs by Annexin V-FITC/PI staining based flow cytometry analysis (reference value: 2.86%); format: functional
[11] = Stability in rat plasma assessed as compound remaining measured after 60 mins; format: ADME, cell-free; conditions: read-out: Stability
[12] = Stability in rat plasma assessed as compound remaining measured immediately; format: ADME, cell-free; conditions: read-out: Stability
[13] = Stability in rat plasma assessed as compound remaining measured after 10 mins; format: ADME, cell-free; conditions: read-out: Stability
[14] = Stability in rat plasma assessed as compound remaining measured after 30 mins; format: ADME, cell-free; conditions: read-out: Stability
[15] = Stability in rat plasma assessed as compound remaining measured after 120 mins; format: ADME, cell-free; conditions: read-out: Stability
[16] = Stability in rat plasma assessed as half life; format: ADME, cell-free

| Compound | GI50 (HCT-116) | GI50 (A549 [1]) | GI50 (PC-3) | other results |
| --- | --- | --- | --- | --- |
| O=C(c1ccc(N2N=C(c3ccccc3)/C(=N/Nc3ccccc3)C2=O)cc1)N1CCN(C2COC2)CC1 | > 50 µM | > 50 µM | > 50 µM |  |
| CC(C)Oc1cc(F)ccc1N/N=C1\C(=O)N(c2ccc(C(=O)N3CCC(N(C)C)CC3)cc2)N=C1c1ccccc1 | 2.2 µM | 6.13 µM | 2.42 µM |  |
| CC(C)(C)OC(=O)N1CCC2(CC1)CN(C(=O)c1ccc(N3N=C(c4ccccc4)/C(=N\Nc4ccccc4)C3=O)cc1)C2 | 17.7 µM | 25.5 µM | 19.9 µM |  |
| COc1cc(N/N=C2\C(=O)N(c3ccc(C(=O)N4CCC(N(C)C)CC4)cc3)N=C2c2ccccc2)cc(OC)c1OC | 5.51 µM | 2.9 µM | 5.77 µM |  |
| O=C(c1ccc(N2N=C(c3ccccc3)/C(=N/Nc3ccccc3)C2=O)cc1)N1CCC2(CC1)CNC2 | 4.12 µM | 4.69 µM | 5.6 µM |  |
| C[C@]12CC[C@H]3[C@@H](CCC4=CC(=O)CC[C@@]43C)[C@@H]1CC[C@@H]2O [TESTOSTERONE] |  |  |  | CLH [2]: 95.5 mL/min/kg; CLint [3]: 106 µL/min/mg; CLH [4]: 1.4374 mL/min/kg |
| CN(C)C1CCN(C(=O)c2ccc(N3N=C(c4ccccc4)/C(=N/Nc4cccnc4)C3=O)cc2)CC1 | 3.88 µM | 4.22 µM | 5.17 µM |  |
| CN(C)C1CCN(C(=O)c2ccc(N3N=C(c4ccccc4)/C(=N/Nc4ccc(O)cc4)C3=O)cc2)CC1 | 2.67 µM | 2.19 µM | 3.04 µM | Activity (A549 [5]): 16.2%; Activity (A549 [6]): 60%; Activity (A549 [7]): 2.33%; Activity (A549 [8]): 21.5%; Activity (A549 [9]): Active; Activity (A549 [10]): 76.2% |
| CN(C)C1CCN(C(=O)c2ccc(N3N=C(C4CC4)/C(=N/Nc4ccccc4)C3=O)cc2)CC1 | 4.38 µM | 2.15 µM | 7.14 µM |  |
| CN(C)C1CCN(C(=O)c2ccc(N3N=C(c4ccccc4)/C(=C/NCc4ccccc4)C3=O)cc2)CC1 | > 20 µM | > 20 µM | > 20 µM |  |
| CN(C)C1CCN(C(=O)c2ccc(N3N=C(c4ccccc4)CC3=O)cc2)CC1 | > 50 µM | > 50 µM | > 50 µM |  |
| CS(=O)(=O)N1CCN(C(=O)c2ccc(N3N=C(c4ccccc4)/C(=N/Nc4ccccc4)C3=O)cc2)CC1 | > 50 µM | > 50 µM | > 50 µM |  |
| O=C(c1cscn1)N1CCC(C2=NN(c3nc(-c4ccccc4)cs3)C(=O)/C2=N\Nc2nccs2)CC1 | > 50 µM | > 50 µM | > 50 µM |  |
| O=C(NCc1ccncc1)c1ccc(N2N=C(c3ccccc3)/C(=N/Nc3ccccc3)C2=O)cc1 | 17.5 µM | 11.5 µM | 12.6 µM |  |
| O=C(c1ccc(N2N=C(c3ccccc3)/C(=N\Nc3ccccc3)C2=O)cc1)N1CCC(N2CCCCC2)CC1 | 8.75 µM | 14.5 µM | 12.8 µM |  |
| CN(C)C1CCN(C(=O)c2cccc(N3N=C(c4ccccc4)/C(=N/Nc4ccccc4)C3=O)c2)CC1 | 5.23 µM | 2.68 µM | 10.7 µM |  |
| O=C(c1ccccc1)N1CCC(C2=NN(c3nc(-c4ccccc4)cs3)C(=O)/C2=N\Nc2nccs2)CC1 | > 50 µM | 28.7 µM | > 50 µM |  |
| CN(C)C(=O)c1ccc(N2N=C(c3ccccc3)/C(=N/Nc3ccccc3)C2=O)cc1 | > 50 µM | > 50 µM | > 50 µM |  |
| CCOC(=O)[C@H](CCc1ccccc1)N[C@@H](C)C(=O)N1CCC[C@H]1C(=O)O.O=C(O)/C=C\C(=O)O [ENALAPRIL MALEATE] |  |  |  | remaining at 1 h [11]: 2.7%; remaining at 0 min [12]: 100%; remaining at 10 min [13]: 58.9%; remaining at 0.5 h [14]: 19.2%; remaining at 2 h [15]: 0%; half-life [16]: 10 min |
| O=C(c1ccc(N2N=C(c3ccccc3)/C(=N/Nc3ccccc3)C2=O)cc1)N1CCCCC1 | > 50 µM | > 50 µM | > 50 µM |  |
